Assay results as given in a compilation of properties of binary mixtures (doi:10.1021/acs.iecr.0c01496).

Test: xn = mol fraction of the nth substance listed
Conditions: 101 kPa

CC[n+]1ccccc1.[Cl-] + CCCC[n+]1ccccc1.[Cl-]
viscosity [mPa·s]
Conditions	x1 = 0.121	x1 = 0.198	x1 = 0.302	x1 = 0.388	x1 = 0.504	x1 = 0.597	x1 = 0.702	x1 = 0.795	x1 = 0.804
363.1 K	–	–	–	–	–	–	–	58.2	57.9
368.1 K	–	–	–	–	–	–	–	47.6	47.5
373.1 K	–	–	–	–	–	–	–	39.3	39.3
378.1 K	–	–	–	–	–	–	–	–	32.7
383.1 K	–	–	–	–	–	–	–	27.4	27.4
388.1 K	–	–	–	–	–	28.8	25.5	23.1	–
393.1 K	–	–	–	–	–	24.4	21.6	19.7	–
398.1 K	–	–	–	25.3	–	20.7	–	16.8	–
403.1 K	–	–	–	21.5	20.1	17.8	15.9	14.53	–
408.1 K	–	–	20.2	18.5	17.4	15.39	13.73	12.63	12.79
413.1 K	–	–	17.5	15.98	15.22	13.41	11.98	–	11.23
418.1 K	17.66	17.21	15.22	13.94	–	11.79	10.54	9.75	9.93
423.1 K	15.42	15.14	13.36	–	11.92	10.44	9.33	8.67	8.86
428.1 K	13.58	13.44	11.83	10.85	10.69	9.32	–	–	7.96
433.1 K	12.06	12.04	10.56	9.69	9.66	–	7.5	7	7.21
438.1 K	10.81	10.88	–	8.73	8.81	7.61	–	6.37	6.58
443.1 K	9.77	9.92	8.64	7.94	–	6.96	6.22	5.84	–

CC[n+]1ccccc1.[Cl-] + CC[n+]1ccccc1.[Br-]
viscosity [mPa·s]
Conditions	403.1 K	408.1 K	413.1 K	418.1 K	423.1 K	428.1 K	433.1 K	438.1 K	443.1 K
x1 = 0.105	12.65	11.56	10.55	9.63	8.8	8.05	7.39	6.82	6.34
x1 = 0.196	12.66	11.53	10.51	–	–	7.97	7.31	6.75	6.27
x1 = 0.303	12.66	–	10.45	9.5	–	–	7.22	6.66	6.2
x1 = 0.387	12.65	–	10.31	9.37	8.55	7.84	7.23	6.69	6.22
x1 = 0.503	12.66	11.37	–	9.28	8.45	7.74	–	6.61	6.15
x1 = 0.613	12.67	11.33	10.19	–	–	7.65	7.05	–	6.08
x1 = 0.688	–	11.3	10.15	9.17	8.33	–	7	6.47	6.02
x1 = 0.803	12.66	11.26	10.08	9.08	8.24	7.52	6.9	6.38	5.94
x1 = 0.885	12.65	11.22	10.02	9.02	–	7.44	6.83	6.32	5.88

CCCC[n+]1ccccc1.[Cl-] + CC[n+]1ccccc1.[Br-]
viscosity [mPa·s]
Conditions	x2 = 0.104	x2 = 0.193	x2 = 0.313	x2 = 0.408	x2 = 0.484	x2 = 0.604	x2 = 0.64	x2 = 0.694	x2 = 0.797	x2 = 0.894
368.1 K	–	–	–	–	56.3	46	43.6	39.7	–	–
373.1 K	–	–	–	–	47.7	39.5	37.6	34.5	–	–
378.1 K	–	–	–	–	40.7	34.1	32.6	30.1	26	–
383.1 K	–	–	–	38.5	34.8	29.6	28.3	26.3	23	–
388.1 K	–	–	–	32.9	–	25.7	24.7	–	20.4	–
393.1 K	–	36	31.5	28.3	25.9	22.5	–	20.4	–	16.16
398.1 K	–	30.5	27	24.4	22.5	19.7	19	18.01	16.16	14.53
403.1 K	28.4	26.1	23.3	–	19.7	–	16.77	15.99	14.46	13.09
408.1 K	24.4	22.4	20.2	18.5	17.27	15.38	–	14.24	–	11.82
413.1 K	21	–	17.7	16.27	15.24	13.66	–	–	–	10.69
418.1 K	–	16.98	15.51	14.37	13.52	12.2	–	–	10.53	9.7
423.1 K	16.01	14.92	–	12.77	12.04	10.92	10.59	10.27	–	–
428.1 K	14.14	13.22	–	11.41	10.79	–	9.53	–	8.64	8.01
433.1 K	12.59	11.8	10.96	10.25	–	8.86	–	8.41	7.85	7.31
438.1 K	11.29	10.6	9.89	9.26	8.8	–	7.81	7.65	7.17	–
443.1 K	10.22	9.6	8.97	8.42	8.01	7.32	–	6.98	–	6.11

CCCC[n+]1ccccc1.[Cl-] + CCCC[n+]1ccccc1.[Br-]
viscosity [mPa·s]
Conditions	398.1 K	403.1 K	408.1 K	413.1 K	418.1 K	423.1 K	428.1 K	433.1 K	438.1 K	443.1 K
x1 = 0.084	–	–	22.9	19.4	16.6	–	12.56	11.09	9.91	8.95
x1 = 0.169	33.5	27.8	23.3	19.7	–	14.63	12.79	11.3	–	9.1
x1 = 0.292	33.8	28.1	23.6	20	17.2	14.84	12.97	–	10.22	9.22
x1 = 0.389	–	28.5	–	20.3	–	15.07	13.18	11.63	10.37	9.35
x1 = 0.469	–	29.1	24.5	20.9	18	15.61	13.69	12.13	–	9.81
x1 = 0.611	–	–	25.1	21.4	18.4	16.03	14.06	12.46	11.15	10.07
x1 = 0.689	–	–	–	21.5	–	16.11	14.13	12.51	11.17	10.08
x1 = 0.785	–	–	–	21.9	18.9	16.43	–	12.76	11.41	10.29
x1 = 0.892	–	–	–	–	–	–	14.84	–	–	10.63
